In patent CN101862374A, “莲子心及其提取物的新用途” (Individual, priority 2010, dated 2010):

Key:
[1] = system: type II 5α-reductase [II型5α-还原酶]; assay: Spectrophotometric (NADPH, 340 nm) 5α-reductase inhibition; assay type: biochemical; conditions: for mean inhibition rate: NADPH consumption, 10 min, 37 °C, serial concentrations, average; for inhibition rate compared with finasteride: versus finasteride [非那甾胺]
[2] = system: type II 5α-reductase [II型5α-还原酶]; assay: DHT kit assay of 5α-reductase inhibition; assay type: biochemical; conditions: 37 °C, 30 min
autoxidation [自氧化] = conditions: cited from earlier work
[3] = system: oxidatively damaged erythrocytes [氧化损伤红细胞]; conditions: cited from earlier work
[4] = system: prostate smooth muscle α1-AR [前列腺平滑肌α1-AR]; assay: Competitive inhibition of 125IBE binding to α1-AR of prostate smooth muscle membranes; design: species or system rat; conditions: high dose
[5] = system: rat myocardium with ischemia-reperfusion injury [大鼠缺血再灌注损伤心肌]; conditions: cited from earlier work
[6] = system: experimental hyperlipidemic rats [实验性高脂血症大鼠]; conditions: rat; cited from earlier work
[7] = system: rat cerebral ischemia-reperfusion [大鼠脑缺血再灌注]; conditions: cited from earlier work
[8] = system: hyperlipidemia model rats [高血脂症模型大鼠]; conditions: rat; cited from earlier work
[9] = system: platelets of hyperlipidemia patients and healthy persons [高脂血症患者和健康人血小板]; conditions: in vitro, blood, several inducers; cited from earlier work

Structure (SMILES): COc1ccc(C[C@@H]2c3cc(Oc4cc(C[C@@H]5c6cc(O)c(OC)cc6CCN5C)ccc4O)c(OC)cc3CCN2C)cc1 [异莲心碱]
- mean inhibition rate [1]: 65.48%
- inhibition rate compared with finasteride [1]: 强于非那甾胺
- inhibition of 5α-reductase activity by change of DHT concentration [2]: 有明显抑制作用
- inhibition of autoxidation (autoxidation [自氧化]): 能显著抑制自氧化
- protection of oxidatively damaged erythrocytes [3]: 对氧化损伤红细胞有保护作用

Structure (SMILES): CC(C)(C)NC(=O)[C@H]1CC[C@H]2[C@@H]3CC[C@H]4NC(=O)C=C[C@]4(C)[C@H]3CC[C@]12C [非那雄胺, reference compound]
- mean inhibition rate [1]: 57.14%

Structure (SMILES): COc1cc2c(cc1OC)[C@@H](Cc1ccc(O)c(Oc3cc4c(cc3OC)CCN(C)[C@@H]4Cc3ccc(O)cc3)c1)N(C)CC2 [莲心碱]
- mean inhibition rate [1]: 71.43%
- inhibition of 5α-reductase activity (in words) ([1]; by NADPH determination): 有明显抑制作用
- inhibition rate compared with finasteride [1]: 强于非那甾胺
- inhibition of 5α-reductase activity by change of DHT concentration [2]: 有明显抑制作用
- inhibition of prostate smooth muscle α1-AR [4]: 能抑制前列腺平滑肌α1-AR
- area of myocardial infarction [5]: 可减少心肌梗死的面积
- damage of myocardial cells [5]: 减轻心肌细胞的损伤
- protection of ischemia-reperfusion injured myocardium [5]: 有保护作用
- atherosclerosis index [6]: 显著降低
- serum low-density lipoprotein cholesterol [6]: 显著降低
- serum total cholesterol [6]: 显著降低
- serum triglycerides [6]: 显著降低
- C-Fos protein expression after cerebral ischemia-reperfusion [7]: 抑制脑缺血再灌注后NOS和C-Fos蛋白的表达
- NOS expression after cerebral ischemia-reperfusion [7]: 抑制脑缺血再灌注后NOS和C-Fos蛋白的表达
- extent of infarct lesion [7]: 可显著减少大鼠梗死病灶范围

Structure (SMILES): COc1ccc(C[C@@H]2c3cc(Oc4cc(C[C@@H]5c6cc(OC)c(OC)cc6CCN5C)ccc4O)c(OC)cc3CCN2C)cc1 [甲基莲心碱]
- mean inhibition rate [1]: 68.22%
- inhibition rate compared with finasteride [1]: 强于非那甾胺
- inhibition of 5α-reductase activity by change of DHT concentration [2]: 有明显抑制作用
- inhibition of prostate smooth muscle α1-AR [4]: 能抑制前列腺平滑肌α1-AR
- antioxidant action of the organism [8]: 增强机体抗氧化作用
- degree of lipid peroxidation [8]: 减轻脂质过氧化的程度
- effect on blood lipids [8]: 具有显著的抑制作用
- inhibition of platelet aggregation [9]: 可明显抑制多种诱聚剂诱导的高脂血症患者和健康人血小板聚集
